How the values were obtained:
[1] = test system: HTB-20; experiment: HTB-20 cell culture growth (Coulter Counter cell counting); assay type: cell-based, Human
Method: (§1) Human breast cancer cell lines MCF-7 and HTB-20 were subcultured in flasks accompanied by daily changes of medium comprising RPMI 1640 supplemented with fetal bovine serum (10%, v/v). The cultures were maintained in a humidified chamber at 37° C. with 5% CO2 and 95% air. The cells were harvested at confluency by trypsinzation and suspended at a cell density of 200,000 to 300,000 cells/ml in a small volume of the growth medium to be used.
(§2) In a typical experiment in which the effects of the anti-cancer nanoemulsions on cell growth were to be examined, aliquots of the cell suspension containing about 20,000 to 30,000 cells were replicately plated in dishes containing 3 ml of the growth medium consisting of RPMI 1640 supplemented with charcoal-stripped fetal bovine serum (5%, v/v) and of penicillin-streptomycin (10 units and 10 μg, respectively) and mycostatin (2.5 units/ml) and incubated at 37° C. in the humidified chamber. On day 1 when the cell adhered firmly to the bottom surface of the dishes, the medium was aspirated off and the cells then challenged by the anti-cancer nanoemulsions; groups of replicate dishes received 3 ml of fresh growth medium containing either ASF or tamoxifen at the indicated concentrations. The control groups received only the microfluidized nanoemulsion and ASF or tamoxifen in free solution.
(§3) At various time intervals (i.e., Days 1-17), triplicate dishes were withdrawn for cell counting; after removal of the medium by aspiration, the adhered cells were washed twice with 1 ml of Eagles balanced salt solution without Ca^2+ and Mg^2+ and dislodged from the dish by trypsinization involving the incubation of 0.5 ml of trypsin-EDTA solution (IX) for 5 minutes at 37° C., after which the protease reaction was stopped by adding 2.5 ml of a “stop” medium consisting of RPMI 1640 and 5% fetal calf serum. The cells were then collected by centrifugation with subsequent suspension in the medium. An aliquot of the suspension was subjected to cell counting using a Coulter Counter (data expressed as 10^6 cells per dish).

[2] = test system: MCF-7; experiment: MCF-7 cell culture growth (Coulter Counter cell counting); assay type: cell-based, Human
Method: as §1, §2, §3

SMILES: CC/C(=C(\c1ccccc1)c1ccc(OCCN(C)C)cc1)c1ccccc1 [Tamoxifen In Free Solution, tamoxifen]
- cell count ([1]; HTB-20, 1 day of incubation): 4 106 cells per dish
- cell count ([1]; HTB-20, 3 days of incubation): 12 106 cells per dish
- cell count ([1]; HTB-20, 5 days of incubation): 24 106 cells per dish
- cell count ([1]; HTB-20, 7 days of incubation): 28 106 cells per dish
- cell count ([1]; HTB-20, 10 days of incubation): 41 106 cells per dish
- cell count ([1]; HTB-20, 12 days of incubation): 51 106 cells per dish
- improvement of time-course of tamoxifen-induced apoptosis ([1]; HTB-20, applied as a microfluidized nanoemulsion vs free solution): 2-10 fold
- cell count ([2]; MCF-7, 5 days of incubation): 5 106 cells per dish
- cell count ([2]; MCF-7, 8 days of incubation): 19 106 cells per dish
- cell count ([2]; MCF-7, 10 days of incubation): 25 106 cells per dish
- cell count ([2]; MCF-7, 12 days of incubation): 33 106 cells per dish
- cell count ([2]; MCF-7, 15 days of incubation): 50 106 cells per dish
- cell count ([2]; MCF-7, 17 days of incubation): 67.5 106 cells per dish
- improvement of time-course of tamoxifen-induced apoptosis ([2]; MCF-7, applied as a microfluidized nanoemulsion vs free solution): 2-10 fold
